According to article PMC13385394, “Cryo-EM Structure of the TRPC1/5 Heteromer Enables Design of Antidepressant and Anxiolytic Drug with Reduced Side Effects” (Nature Communications, 2026):
“And” between values parts separate entries of the source, which are not always exact repeats. Identical values can stand only once. Like-named read-outs stand apart in the source and are kept apart here.

Assays:
mCPP-induced anxiety [1] = experiment: Elevated plus maze (EPM) test, mCPP-induced anxiety model; settings: mCPP mice; single dose; JD03-02 3, 10, 30 mg/kg i.g.
TRPC5 homomers = biological target: T1, TRPC5 homomers (Homo sapiens, UniProt Q9UL62); experiment: Whole-cell patch-clamp, inhibition of EA-activated TRPC5 homomers; assay type: cell-based
T1 construct: full length hTRPC5 (TRPC5 wild type (WT)); expressed in transfected cells; host or cells: HEK293T
T1 sequence (Q9UL62 1-973): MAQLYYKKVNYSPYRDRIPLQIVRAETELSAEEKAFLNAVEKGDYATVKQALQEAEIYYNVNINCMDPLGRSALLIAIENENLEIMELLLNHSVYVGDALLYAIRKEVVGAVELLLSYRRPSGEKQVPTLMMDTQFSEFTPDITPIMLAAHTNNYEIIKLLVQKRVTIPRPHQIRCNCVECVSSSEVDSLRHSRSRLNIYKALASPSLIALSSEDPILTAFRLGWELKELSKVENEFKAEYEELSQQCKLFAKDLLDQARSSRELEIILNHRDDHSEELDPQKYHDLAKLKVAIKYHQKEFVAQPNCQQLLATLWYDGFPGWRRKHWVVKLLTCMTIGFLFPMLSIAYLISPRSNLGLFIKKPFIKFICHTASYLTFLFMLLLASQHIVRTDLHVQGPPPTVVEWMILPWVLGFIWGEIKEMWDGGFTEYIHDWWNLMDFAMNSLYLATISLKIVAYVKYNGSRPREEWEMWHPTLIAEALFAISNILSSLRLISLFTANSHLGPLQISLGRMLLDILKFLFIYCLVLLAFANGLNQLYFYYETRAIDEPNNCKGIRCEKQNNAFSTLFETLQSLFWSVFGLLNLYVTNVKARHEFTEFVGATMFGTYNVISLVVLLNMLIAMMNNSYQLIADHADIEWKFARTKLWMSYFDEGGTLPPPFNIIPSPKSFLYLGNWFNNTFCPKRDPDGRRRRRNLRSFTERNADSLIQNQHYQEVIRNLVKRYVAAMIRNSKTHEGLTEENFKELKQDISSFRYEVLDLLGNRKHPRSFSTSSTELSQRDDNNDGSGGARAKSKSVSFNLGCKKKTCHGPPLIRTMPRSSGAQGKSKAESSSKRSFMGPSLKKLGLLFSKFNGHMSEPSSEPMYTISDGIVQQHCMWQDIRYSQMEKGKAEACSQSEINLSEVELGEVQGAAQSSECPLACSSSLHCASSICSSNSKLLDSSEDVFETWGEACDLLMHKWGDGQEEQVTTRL

TRPC1/5 heteromers = biological target: T2, TRPC1/5 heteromers (Homo sapiens, UniProt P48995+Q9UL62); experiment: Whole-cell patch-clamp, inhibition of EA-activated TRPC1/5 heteromers; assay type: cell-based
T2 construct: wild type plasmids full-length hTRPC1 (WT) and full-length hTRPC5 (WT); expressed in transfected cells; host or cells: HEK293T
Excerpt: The full-length hTRPC5 or truncated mTRPC5, and the full-length hTRPC1 constructs was respectively co-transfected in a plasmid ration 1:3 (w/w) into HEK293T cells (from the ATCC). As previously described, a mCherry was inserted into TRPC5 constructs and a GFP was inserted at the C terminus of TRPC1. Therefore, Cells with red and green fluorescence were selected for whole-cell patch recordings (HEKA EPC10 amplifier, […] software (https://www.heka.com/downloads/downloads_main.html#down_patchmaster)). A 1-s ramp protocol from −100 to +100 mV was applied at a frequency of 0.2 Hz. Signals were sampled at 50 kHz and filtered at 2.9 kHz. The pipette solution contained 130 mM CsCl, 1 mM MgCl2, 5.7 mM CaCl2, 10 mM EGTA, and 10 mM Hepes (calculated free Ca^2+, 200 nM), and the pH was titrated to 7.2 using CsOH[40]. The standard bath solution contained 140 mM NaCl, 5 mM KCl, 1 mM MgCl2, 2 mM CaCl2, 10 mM Hepes, and 10 mM D-glucose, and the pH was adjusted to 7.4 with NaOH (1 M). The recording chamber (150 μL) was perfused at a rate of ~2 mL/min. All recordings were performed at room temperature.

[2] = Pharmacokinetics in mouse after p.o. and i.v. administration; assay type: in vivo; settings: for AUC(0-inf): read-out: AUCINF_obs; for clearance: read-out: CL_obs; for MRT inf: read-out: MRTINF_obs
mCPP-induced anxiety [3] = experiment: Open-field test (OFT), mCPP-induced anxiety model; settings: single dose
[4] = C57BL/6J, mouse, in vivo, iv, 2 mg/kg, mouse 2mg/kg i.v., Mean
[5] = C57BL/6J, mouse, in vivo, iv, 2 mg/kg, mouse 2mg/kg i.v., individual animals 4-6
[6] = C57BL/6J, mouse, in vivo, po, 10 mg/kg, mouse 10mg/kg p.o., Mean
[7] = C57BL/6J, mouse, in vivo, po, 10 mg/kg, mouse 10mg/kg p.o., individual animals 1-3
[8] = mouse 2mg/kg i.v., individual animals 4-6, listed as JD03-02, 2 mg/kg
[9] = mouse 10mg/kg p.o., individual animals 1-3, listed as JD03-02, 10 mg/kg

T2 sequence (P48995 whole entry, one chain of several): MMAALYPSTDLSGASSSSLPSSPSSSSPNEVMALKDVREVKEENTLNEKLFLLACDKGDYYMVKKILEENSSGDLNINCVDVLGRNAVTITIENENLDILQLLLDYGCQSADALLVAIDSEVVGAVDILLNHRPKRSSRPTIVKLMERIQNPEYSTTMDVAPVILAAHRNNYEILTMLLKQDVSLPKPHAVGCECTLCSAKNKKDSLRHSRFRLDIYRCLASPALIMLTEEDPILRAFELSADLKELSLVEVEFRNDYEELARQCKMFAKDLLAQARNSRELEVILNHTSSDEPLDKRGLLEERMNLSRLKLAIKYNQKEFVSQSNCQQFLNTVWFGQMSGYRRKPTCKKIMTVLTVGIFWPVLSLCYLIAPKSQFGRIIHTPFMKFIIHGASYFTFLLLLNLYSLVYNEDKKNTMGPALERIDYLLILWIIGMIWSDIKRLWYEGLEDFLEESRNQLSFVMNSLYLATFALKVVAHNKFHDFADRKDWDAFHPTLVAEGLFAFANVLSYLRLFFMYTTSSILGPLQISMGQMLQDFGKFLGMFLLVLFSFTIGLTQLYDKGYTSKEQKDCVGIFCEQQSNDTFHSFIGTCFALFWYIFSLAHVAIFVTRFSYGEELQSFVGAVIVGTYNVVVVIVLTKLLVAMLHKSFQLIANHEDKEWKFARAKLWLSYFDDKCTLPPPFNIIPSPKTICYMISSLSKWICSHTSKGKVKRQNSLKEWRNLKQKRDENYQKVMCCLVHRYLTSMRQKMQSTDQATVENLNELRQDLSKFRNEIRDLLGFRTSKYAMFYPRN

CN(C)CCCCn1c(=O)c2c(nc(Oc3cccc(Cl)c3)n2Cc2ccc(Cl)cc2)n(C)c1=O [H08]
EPM open arm entries and time in open arms (mCPP-induced anxiety [1]): increasing numbers of open arm entries and time spent in open arms
concentration at which inhibition of TRPC5 homomers appears (TRPC5 homomers): > 5 µM
HillSlope, TRPC5 (TRPC5 homomers; whole-cell patch-clamp): 1.990
IC50 (TRPC5 homomers; whole-cell patch-clamp): 8500 nM
HillSlope, TRPC5 (TRPC5 homomers; whole-cell patch-clamp, listed as JD03-02): > 1
Hill coefficient, TRPC1/C5 heteromer (TRPC1/5 heteromers; combined fitting with additional 0.01 nM and 0.001 nM points (rebuttal)): approximately 0.33
IC50 (TRPC1/5 heteromers; whole-cell patch-clamp, read-out: IC50, TRPC1/C5): 0.239 nM and 0.2 nM
Tmax ([2]; C57BL/6J, in vivo, po, mouse 10mg/kg p.o., Mean): 1 h
AUC(0-t) [2, 4]: 478 ng·h/mL
half-life [2, 4]: 3.09 h
AUC(0-inf) [2, 4]: 519 ng·h/mL
clearance [2, 4]: 65.9 mL/min/kg
MRT inf [2, 4]: 3.94 h
AUC(0-t) [2, 5]: 385 ng·h/mL
half-life [2, 5]: 3.52 h
AUC(0-inf) [2, 5]: 469 ng·h/mL
clearance [2, 5]: 71 mL/min/kg
MRT inf [2, 5]: 4.46 h
AUC(0-t) [2, 6]: 1190 ng·h/mL
half-life [2, 6]: 2.9 h
AUC(0-inf) [2, 6]: 1220 ng·h/mL
Cmax ([2]; C57BL/6J, mouse, in vivo, po, 10 mg/kg, mouse 10mg/kg p.o., Mean, read-out: Cmax): 201 ng/mL
MRT inf [2, 6]: 5.27 h
half-life [2, 7]: 2.86 h
AUC(0-inf) [2, 7]: 1300 ng·h/mL
Cmax ([2]; C57BL/6J, mouse, in vivo, po, 10 mg/kg, mouse 10mg/kg p.o., individual animals 1-3, read-out: Cmax): 256 ng/mL
MRT inf [2, 7]: 4.73 h
Kp ([2]; brain and heart plasma, po, 10 mg/kg, mouse p.o., read-out: AUClast brain/AUClast heart plasma (brain-to-plasma ratio, B/P)): 0.67
Kp at 4 h ([2]; brain and heart plasma, po, 10 mg/kg, mouse p.o., read-out: Clast brain/Cmax heart plasma): 0.83
bioavailability ([2]; in vivo, oral, mouse 10mg/kg p.o. vs 2mg/kg i.v., read-out: F (oral bioavailability)): 49.8%
Vss_obs ([2]; mouse 2mg/kg i.v., Mean): 15.296 L/kg
AUCINF_obs [2, 8]: 447 ng·h/mL and 640 ng·h/mL
AUClast [2, 8]: 416 ng·h/mL and 634 ng·h/mL
CL_obs [2, 8]: 74.6 mL/min/kg and 52.1 mL/min/kg
MRTINF_obs [2, 8]: 2.895 h and 4.460 h
T1/2 [2, 8]: 2.06 h and 3.69 h
Vss_obs [2, 8]: 18.984 L/kg and 12.955 L/kg and 13.949 L/kg
AUCINF_obs [2, 9]: 1549 ng·h/mL and 800 ng·h/mL
AUClast [2, 9]: 1294 ng·h/mL and 1532 ng·h/mL and 746 ng·h/mL
Cmax [2, 9]: 205 ng/mL and 143 ng/mL
MRTINF_obs [2, 9]: 6.50 h and 4.58 h
T1/2 [2, 9]: 3.35 h and 2.48 h
AUClast ([2]; mouse p.o., brain): 524 ng·h/g
Cmax ([2]; mouse, brain, po, 10 mg/kg, mouse p.o., brain, read-out: Cmax): 265 ng/g
concentration at 4 h ([2]; mouse, brain, single 10 mg/kg oral dose, at 4 hours): ~513 nM
AUC(0-t) ([2]; mouse, heart plasma, po, 10 mg/kg, mouse p.o.): 778 ng·h/mL
Cmax ([2]; mouse, heart plasma, po, 10 mg/kg, mouse p.o., heart plasma, read-out: Cmax): 318 ng/mL
AUC(0-t) ([2]; mouse, portal vein plasma, po, 10 mg/kg, mouse p.o.): 1330 ng·h/mL
Cmax ([2]; mouse, portal vein plasma, po, 10 mg/kg, mouse p.o., portal vein plasma, read-out: Cmax): 493 ng/mL
Tmax ([2]; po, 10 mg/kg, mouse p.o., brain): 4 h
Tmax ([2]; po, 10 mg/kg, mouse p.o., heart plasma): 4 h
Tmax ([2]; po, 10 mg/kg, mouse p.o., portal vein plasma): 0.25 h
OFT central zone entries and time in central zone (mCPP-induced anxiety [3]; mCPP mice): enhancing numbers of central zone entries and time spent in the central zone
OFT total distance traveled (mCPP-induced anxiety [3]; mCPP-induced anxiety-like mice): no significant effect
